{"source": "patent US20250255867A1", "about": "(Kadmon Corporation, LLC, priority 2022, published 2025)", "settings": "Cohort 3 400 mg QD", "data": [{"smiles": "CC(C)NC(=O)COc1cccc(-c2nc(Nc3ccc4[nH]ncc4c3)c3ccccc3n2)c1", "note": "[Belumosudil, 2-{3-[4-(1H-indazol-5-ylamino)-2-quinazolinyl]phenoxy}-N-(propan-2-yl) acetamide]", "values": [{"measurement": "Blood loss anaemia: # Events", "value": 0}, {"measurement": "Blood loss anaemia: Affected/At Risk", "value": "0/21"}, {"measurement": "Blood loss anaemia: Affected/At Risk (%)", "value": "(0%)"}, {"measurement": "Bronchial secretion retention: # Events", "value": 0}, {"measurement": "Bronchial secretion retention: Affected/At Risk", "value": "0/21"}, {"measurement": "Bronchial secretion retention: Affected/At Risk (%)", "value": "(0%)"}, {"measurement": "Bronchitis: # Events", "value": 1}, {"measurement": "Bronchitis: Affected/At Risk", "value": "1/21"}, {"measurement": "Bronchitis: Affected/At Risk (%)", "value": "(4.76%)"}, {"measurement": "Bronchoscopy: # Events", "value": 0}, {"measurement": "Bronchoscopy: Affected/At Risk", "value": "0/21"}, {"measurement": "Bronchoscopy: Affected/At Risk (%)", "value": "(0%)"}, {"measurement": "Catheter site haemorrhage: # Events", "value": 0}, {"measurement": "Catheter site haemorrhage: Affected/At Risk", "value": "0/21"}, {"measurement": "Catheter site haemorrhage: Affected/At Risk (%)", "value": "(0%)"}, {"measurement": "Chills: # Events", "value": 0}, {"measurement": "Chills: Affected/At Risk", "value": "0/21"}, {"measurement": "Chills: Affected/At Risk (%)", "value": "(0%)"}, {"measurement": "Chronic kidney disease: # Events", "value": 0}, {"measurement": "Chronic kidney disease: Affected/At Risk", "value": "0/21"}, {"measurement": "Chronic kidney disease: Affected/At Risk (%)", "value": "(0%)"}, {"measurement": "Conjunctival haemorrhage: # Events", "value": 1}, {"measurement": "Conjunctival haemorrhage: Affected/At Risk", "value": "1/21"}, {"measurement": "Conjunctival haemorrhage: Affected/At Risk (%)", "value": "(4.76%)"}, {"measurement": "Conjunctivitis: # Events", "value": 3}, {"measurement": "Conjunctivitis: Affected/At Risk", "value": "3/21"}, {"measurement": "Conjunctivitis: Affected/At Risk (%)", "value": "(14.29%)"}, {"measurement": "Constipation: # Events", "value": 4}, {"measurement": "Constipation: Affected/At Risk", "value": "3/21"}, {"measurement": "Constipation: Affected/At Risk (%)", "value": "(14.29%)"}, {"measurement": "Contrast media allergy: # Events", "value": 0}, {"measurement": "Contrast media allergy: Affected/At Risk", "value": "0/21"}, {"measurement": "Contrast media allergy: Affected/At Risk (%)", "value": "(0%)"}, {"measurement": "Contusion: # Events", "value": 4}, {"measurement": "Contusion: Affected/At Risk", "value": "3/21"}, {"measurement": "Contusion: Affected/At Risk (%)", "value": "(14.29%)"}, {"measurement": "Corneal abrasion: # Events", "value": 0}, {"measurement": "Corneal abrasion: Affected/At Risk", "value": "0/21"}, {"measurement": "Corneal abrasion: Affected/At Risk (%)", "value": "(0%)"}, {"measurement": "Corneal infection: # Events", "value": 0}, {"measurement": "Corneal infection: Affected/At Risk", "value": "0/21"}, {"measurement": "Corneal infection: Affected/At Risk (%)", "value": "(0%)"}, {"measurement": "Cough: # Events", "value": 9}, {"measurement": "Cough: Affected/At Risk", "value": "7/21"}, {"measurement": "Cough: Affected/At Risk (%)", "value": "(33.33%)"}, {"measurement": "Decreased appetite: # Events", "value": 4}, {"measurement": "Decreased appetite: Affected/At Risk", "value": "4/21"}, {"measurement": "Decreased appetite: Affected/At Risk (%)", "value": "(19.05%)"}, {"measurement": "Dehydration: # Events", "value": 2}, {"measurement": "Dehydration: Affected/At Risk", "value": "2/21"}, {"measurement": "Dehydration: Affected/At Risk (%)", "value": "(9.52%)"}, {"measurement": "Depression: # Events", "value": 3}, {"measurement": "Depression: Affected/At Risk", "value": "3/21"}, {"measurement": "Depression: Affected/At Risk (%)", "value": "(14.29%)"}, {"measurement": "Diarrhoea: # Events", "value": 11}, {"measurement": "Diarrhoea: Affected/At Risk", "value": "7/21"}, {"measurement": "Diarrhoea: Affected/At Risk (%)", "value": "(33.33%)"}, {"measurement": "Dizziness: # Events", "value": 2}, {"measurement": "Dizziness: Affected/At Risk", "value": "2/21"}, {"measurement": "Dizziness: Affected/At Risk (%)", "value": "(9.52%)"}, {"measurement": "Drug eruption: # Events", "value": 0}, {"measurement": "Drug eruption: Affected/At Risk", "value": "0/21"}, {"measurement": "Drug eruption: Affected/At Risk (%)", "value": "(0%)"}, {"measurement": "Dry eye: # Events", "value": 2}, {"measurement": "Dry eye: Affected/At Risk", "value": "2/21"}, {"measurement": "Dry eye: Affected/At Risk (%)", "value": "(9.52%)"}, {"measurement": "Dry skin: # Events", "value": 1}, {"measurement": "Dry skin: Affected/At Risk", "value": "1/21"}, {"measurement": "Dry skin: Affected/At Risk (%)", "value": "(4.76%)"}, {"measurement": "Dyspepsia: # Events", "value": 1}, {"measurement": "Dyspepsia: Affected/At Risk", "value": "1/21"}, {"measurement": "Dyspepsia: Affected/At Risk (%)", "value": "(4.76%)"}, {"measurement": "Dysphagia: # Events", "value": 3}, {"measurement": "Dysphagia: Affected/At Risk", "value": "2/21"}, {"measurement": "Dysphagia: Affected/At Risk (%)", "value": "(9.52%)"}, {"measurement": "Dyspnoea exertional: # Events", "value": 0}, {"measurement": "Dyspnoea exertional: Affected/At Risk", "value": "0/21"}, {"measurement": "Dyspnoea exertional: Affected/At Risk (%)", "value": "(0%)"}, {"measurement": "Dyspnoea: # Events", "value": 6}, {"measurement": "Dyspnoea: Affected/At Risk", "value": "6/21"}, {"measurement": "Dyspnoea: Affected/At Risk (%)", "value": "(28.57%)"}, {"measurement": "Embolism: # Events", "value": 1}, {"measurement": "Embolism: Affected/At Risk", "value": "1/21"}, {"measurement": "Embolism: Affected/At Risk (%)", "value": "(4.76%)"}, {"measurement": "Enamel anomaly: # Events", "value": 0}, {"measurement": "Enamel anomaly: Affected/At Risk", "value": "0/21"}, {"measurement": "Enamel anomaly: Affected/At Risk (%)", "value": "(0%)"}, {"measurement": "Epidural lipomatosis: # Events", "value": 0}, {"measurement": "Epidural lipomatosis: Affected/At Risk", "value": "0/21"}, {"measurement": "Epidural lipomatosis: Affected/At Risk (%)", "value": "(0%)"}, {"measurement": "Epstein-Barr virus infection: # Events", "value": 0}, {"measurement": "Epstein-Barr virus infection: Affected/At Risk", "value": "0/21"}, {"measurement": "Epstein-Barr virus infection: Affected/At Risk (%)", "value": "(0%)"}, {"measurement": "Erectile dysfunction: # Events", "value": 0}, {"measurement": "Erectile dysfunction: Affected/At Risk", "value": "0/21"}, {"measurement": "Erectile dysfunction: Affected/At Risk (%)", "value": "(0%)"}, {"measurement": "Eye irritation: # Events", "value": 0}, {"measurement": "Eye irritation: Affected/At Risk", "value": "0/21"}, {"measurement": "Eye irritation: Affected/At Risk (%)", "value": "(0%)"}, {"measurement": "Eye pain: # Events", "value": 0}, {"measurement": "Eye pain: Affected/At Risk", "value": "0/21"}, {"measurement": "Eye pain: Affected/At Risk (%)", "value": "(0%)"}, {"measurement": "Eye pruritus: # Events", "value": 0}, {"measurement": "Eye pruritus: Affected/At Risk", "value": "0/21"}, {"measurement": "Eye pruritus: Affected/At Risk (%)", "value": "(0%)"}, {"measurement": "Fall: # Events", "value": 1}, {"measurement": "Fall: Affected/At Risk", "value": "1/21"}, {"measurement": "Fall: Affected/At Risk (%)", "value": "(4.76%)"}, {"measurement": "Fatigue: # Events", "value": 14}, {"measurement": "Fatigue: Affected/At Risk", "value": "10/21"}, {"measurement": "Fatigue: Affected/At Risk (%)", "value": "(47.62%)"}, {"measurement": "Flatulence: # Events", "value": 1}, {"measurement": "Flatulence: Affected/At Risk", "value": "1/21"}, {"measurement": "Flatulence: Affected/At Risk (%)", "value": "(4.76%)"}, {"measurement": "Flushing: # Events", "value": 0}, {"measurement": "Flushing: Affected/At Risk", "value": "0/21"}, {"measurement": "Flushing: Affected/At Risk (%)", "value": "(0%)"}, {"measurement": "Fungal infection: # Events", "value": 0}, {"measurement": "Fungal infection: Affected/At Risk", "value": "0/21"}, {"measurement": "Fungal infection: Affected/At Risk (%)", "value": "(0%)"}, {"measurement": "Gamma-glutamyltransferase increased: # Events", "value": 0}, {"measurement": "Gamma-glutamyltransferase increased: Affected/At Risk", "value": "0/21"}, {"measurement": "Gamma-glutamyltransferase increased: Affected/At Risk (%)", "value": "(0%)"}, {"measurement": "Gastric ulcer: # Events", "value": 0}, {"measurement": "Gastric ulcer: Affected/At Risk", "value": "0/21"}, {"measurement": "Gastric ulcer: Affected/At Risk (%)", "value": "(0%)"}, {"measurement": "Gastrooesophageal reflux disease: # Events", "value": 2}, {"measurement": "Gastrooesophageal reflux disease: Affected/At Risk", "value": "2/21"}, {"measurement": "Gastrooesophageal reflux disease: Affected/At Risk (%)", "value": "(9.52%)"}, {"measurement": "Generalised oedema: # Events", "value": 1}, {"measurement": "Generalised oedema: Affected/At Risk", "value": "1/21"}, {"measurement": "Generalised oedema: Affected/At Risk (%)", "value": "(4.76%)"}, {"measurement": "Genital infection fungal: # Events", "value": 0}, {"measurement": "Genital infection fungal: Affected/At Risk", "value": "0/21"}, {"measurement": "Genital infection fungal: Affected/At Risk (%)", "value": "(0%)"}, {"measurement": "Glaucoma: # Events", "value": 0}, {"measurement": "Glaucoma: Affected/At Risk", "value": "0/21"}]}]}
